From the supplement of paper PMC7224384

Legend:
[1] = tested on: MDA-MB-453; experiment: drug sensitivity score (DSS), in combination with BLU9931 (DSS (weighted AUC score)); higher = more sensitive (stronger viability decrease); extreme values may be limits of the assay; conditions: BLU9931 100 nM; 72 h
Summary of the method: (§1)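 Drug sensitivity scores come from a weighted area under a four-parameter logistic fit to percent viability, normalised per plate to control wells. Viability was based on cellular ATP read with CellTiterGlo 2.0 after 72 h at 37 °C, 5% CO2. Each 384-well plate carried FIMM Oncology set compounds in singlicate at five 10-fold dilutions, with 2000 MDA-MB-453 cells per well in medium with or without an FGFR4 inhibitor at 100 nM final.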

[2] = tested on: MDA-MB-453; experiment: drug sensitivity score (DSS), single agent (DSS (weighted AUC score)); higher = more sensitive (stronger viability decrease); extreme values may be limits of the assay; conditions: BLU9931 0 nM; 72 h
Summary of the method: as §1

Row | SMILES | drug sensitivity score [1] | drug sensitivity score [2]
1 | CCCCc1nc2cc(/C=C/C(=O)NO)ccc2n1CCN(CC)CC [Pracinostat] | 19.8 | 22.3
2 | CONC(=O)c1ccccc1Nc1cc(Nc2cc(C)nn2C(C)C)ncc1Cl | 0.5 | 0.8
3 | COc1cc(OC2CCN(C)CC2)ccc1Nc1ncc2c(n1)n(C1CCCC1)c(=O)n2C [AZ 3146] | 1 | 2.6
4 | O=C(O)CCCCC(CCSCc1ccccc1)SCc1ccccc1 (stereo unspecified) [CPI-613] | 0 | 0
5 | CCc1cnn2c(NCc3ccc[n+]([O-])c3)cc(N3CCCC[C@H]3CCO)nc12 [Dinaciclib] | 21.5 | 22.1
6 | CC/C(=C(\c1ccc(O)cc1)c1ccc(OCCN(C)C)cc1)c1ccccc1 [4-hydroxytamoxifen] | 4.5 | 4.8
7 | O=S(=O)(c1cccc2c(O)nccc12)N1CCCNCC1 [Hydroxyfasudil] | 0.2 | 0
8 | CNC(=O)c1cc(Oc2ccc(NC(=O)Nc3ccc(Cl)c(C(F)(F)F)c3)cc2)ccn1 [Sorafenib] | 0 | 0
9 | O=C(NC[C@H](O)CN1CCc2ccccc2C1)c1cc(NC2COC2)ncn1 | 4.3 | 3.9
10 | COc1cc(Nc2ncc3c(n2)-c2ccc(Cl)cc2C(c2c(F)cccc2OC)=NC3)ccc1C(=O)O [Alisertib] | 1.7 | 0
11 | CN1CCN(C2CCC(n3cc(-c4ccc(Oc5ccccc5)cc4)c4c(N)ncnc43)CC2)CC1 (stereo unspecified) | 9.3 | 8.4
12 | CN[C@@H]1C[C@H]2O[C@@](C)([C@@H]1OC)n1c3ccccc3c3c4c(c5c6ccccc6n2c5c31)C(=O)N[C@H]4O [UCN-01] | 16 | 18.2
13 | O=c1sn(-c2cccc3ccccc23)c(=O)n1Cc1ccccc1 [Tideglusib] | 0 | 0
14 | CN1CC[C@@H](NC(=O)Nc2ccc(C#N)cc2)C[C@@H]1c1nc2ccccc2[nH]1 [Glasdegib] | 0 | 0
15 | C[C@H]1O[C@@H](O[C@H]2[C@@H](O)C[C@H](O[C@H]3[C@@H](O)C[C@H](O[C@H]4CC[C@@]5(C)[C@H](CC[C@@H]6[C@@H]5C[C@@H](O)[C@]5(C)[C@@H](C7=CC(=O)OC7)CC[C@]65O)C4)O[C@@H]3C)O[C@@H]2C)C[C@H](O)[C@@H]1O [Digoxin] | 10.6 | 8.2
16 | Cc1sc2c(c1C)C(c1ccc(Cl)cc1)=N[C@@H](CC(=O)NCCCCNC(=O)COc1cccc3c1C(=O)N(C1CCC(=O)NC1=O)C3=O)c1nnc(C)n1-2 (stereo partly specified) [dBET1] | 13.2 | 12.2
17 | Cn1ncc(Cl)c1-c1cc(C(=O)N[C@H](CN)Cc2cccc(F)c2)sc1Cl [Afuresertib] | 8.4 | 7.9
18 | C[C@@H]1COCCN1c1cc(C2([S@](C)(=N)=O)CC2)nc(-c2cc[nH]c3nccc2-3)n1 [AZD6738] | 10.7 | 11
19 | CC1=C2C[C@H]3[C@@H](CC[C@@H]4C[C@H](NS(C)(=O)=O)CC[C@@]43C)[C@@H]2CC[C@@]2(C1)O[C@@H]1C[C@H](C)CN[C@H]1[C@H]2C [Saridegib] | 0 | 0
20 | C#Cc1cccc(Nc2ncnc3cc4c(cc23)OCCOCCOCCO4)c1 [Icotinib] | 1.9 | 1.8

Row | SMILES | drug sensitivity score [1] | drug sensitivity score [2]
21 | CC(=O)c1cc2c(o1)C(=O)c1ccccc1C2=O [Napabucasin] | 0 | 0
22 | CN(C)C/C=C/C(=O)Nc1cc2c(Nc3ccc(F)c(Cl)c3)ncnc2cc1O[C@H]1CCOC1 [Afatinib] | 10.1 | 6.2
23 | CNCc1ccc(-c2[nH]c3cc(F)cc4c3c2CCNC4=O)cc1 [Rucaparib] | 0 | 0.6
24 | CCNc1nc(Nc2cc(F)c(C(=O)N3CCOCC3)cc2OC)ncc1C(F)(F)F [GNE-7915] | 0 | 0
25 | C[C@H]1C[C@@H]2[C@H]([C@@H](O)C[C@@]3(C)[C@H]2CC[C@]3(O)C(=O)CO)[C@@]2(C)C=CC(=O)C=C12 [Methylprednisolone] | 0 | 5.2
26 | CC(C)NC[C@@H](C(=O)N1CCN(c2ncnc3c2[C@H](C)C[C@H]3O)CC1)c1ccc(Cl)cc1 [Ipatasertib] | 12 | 11
27 | COc1cc(NS(C)(=O)=O)ccc1Nc1c2ccccc2nc2ccccc12 [Amsacrine] | 2 | 1.2
28 | CC(C)C(=O)Nc1ccc([N+](=O)[O-])c(C(F)(F)F)c1 [Flutamide] | 0 | 0
29 | C=C(c1ccc(C(=O)O)cc1)c1cc2c(cc1C)C(C)(C)CCC2(C)C [Bexarotene] | 0 | 0
30 | Nc1ccccc1NC(=O)c1ccc(CNc2nccc(-c3cccnc3)n2)cc1 [Mocetinostat] | 17.7 | 16
31 | N#Cc1ccc(C(c2ccc(C#N)cc2)n2cncn2)cc1 [Letrozole] | 0 | 0
32 | O=C(Nc1c[nH]nc1-c1nc2ccc(CN3CCOCC3)cc2[nH]1)NC1CC1 [AT9283] | 2.3 | 2.3
33 | CC(C)(C)c1cnc(CSc2cnc(NC(=O)C3CCNCC3)s2)o1 [SNS-032] | 19.1 | 18.1
34 | COc1cc2ncnc(Nc3cccc(Cl)c3F)c2cc1OC(=O)N1CCN(C)C[C@H]1C [AZD3759] | 0.9 | 0
35 | Cc1ccc(NC(=O)c2ccc(CN3CCN(C)CC3)cc2)cc1Nc1nc(-c2cccnc2)cs1 [Masitinib] | 1.8 | 3.1
36 | COc1ccccc1S(=O)(=O)Nc1ccc2c(c1)CN(C)C(=O)N2 [PFI-1] | 8.4 | 8.2
37 | C=CC(=O)N1CC/C(=C\c2ccc(F)c([N+](=O)[O-])c2)C(=O)/C(=C/c2ccc(F)c([N+](=O)[O-])c2)C1 [VLX1570] | 19.3 | 21.1
38 | C=CC(=O)Nc1cc2c(Nc3ccc(F)c(Cl)c3)ncnc2cc1OCCCN1CCOCC1 [Canertinib] | 17.8 | 15.5
39 | CC[C@@](C)(Nc1ccnc(-c2c[nH]c3ncccc23)n1)C(=O)NCC(F)(F)F [Decernotinib] | 0 | 0
40 | NC(=O)N1CCC(CC(=O)N2CCC([C@H]3c4ncc(Br)cc4CCc4cc(Cl)cc(Br)c43)CC2)CC1 [Lonafarnib] | 0 | 0

Row | SMILES | drug sensitivity score [1] | drug sensitivity score [2]
41 | Cn1cnc2c(F)c(Nc3ccc(Br)cc3Cl)c(C(=O)NOCCO)cc21 [Selumetinib] | 0.7 | 0.7
42 | Cc1c(-c2c(-c3ccc(F)o3)sc3ncnc(O[C@H](Cc4ccccc4OCc4ccnn4CC(F)(F)F)C(=O)O)c23)ccc(OCCN2CCN(C)CC2)c1Cl | 3.3 | 4.2
43 | CN1CCc2c(c3ccccc3n2Cc2ccc(C(=O)NO)cc2)C1 [Tubastatin A] | 2.1 | 4.1
44 | Nc1cc(C(F)(F)F)c(-c2cc(N3CCOCC3)nc(N3CCOCC3)n2)cn1 [Buparlisib] | 11.9 | 11.3
45 | O=C(O)c1ccc2c(c1)nc(Nc1cccc(Cl)c1)c1ccncc12 [Silmitasertib] | 7.6 | 8.1
46 | CCCC(CCC)C(=O)O [Valproic acid] | 0.9 | 1.6
47 | COc1ccc2[nH]cc(/C=C3\C(=O)Nc4ccc(NC(=O)CCN5CCCCC5)cc43)c2c1 | 4.8 | 6.1
48 | CCCCCCCCCCCCCCCCOP(=O)([O-])OCC[N+](C)(C)C [Miltefosine] | 3.9 | 2.7
49 | Cc1cc(C)c(CNC(=O)c2cc(-c3ccc(CN4CCOCC4)cc3)cc3c2cnn3C2CCCC2)c(=O)[nH]1 [EPZ-5687] | 0 | 0.5
50 | CC[C@@H]1[C@H](F)C(=O)N[C@@H]1COc1nccc2cc(C(N)=O)c(OC)cc12 | 0.4 | 2.9
51 | O=C(CCNC(=O)c1ccc(OC(F)(F)F)cc1)N[C@@H]1CCCc2ccccc21 [ML390] | 3 | 5.2
52 | CCOc1ccccc1-n1c(C(C)N2CCN(C(=O)COc3ccc(Cl)cc3)CC2)nc2ccccc2c1=O (stereo unspecified) [Erastin] | 5.6 | 4.1
53 | CCc1cncnc1N1CCN(Cc2nc3ccc(C(F)(F)F)cc3[nH]2)CC1 | 0.6 | 0.6
54 | O=C(Nc1nc2cccc(-c3ccc(CN4CCS(=O)(=O)CC4)cc3)n2n1)C1CC1 [Filgotinib] | 2.5 | 2.9
55 | N#CC[C@H](C1CCCC1)n1cc(-c2ncnc3[nH]ccc23)cn1 [Ruxolitinib] | 0 | 1.2
56 | Cc1ccc(-n2nc(C(C)(C)C)cc2NC(=O)Nc2ccc(OCCN3CCOCC3)c3ccccc23)cc1 [Doramapimod] | 1.8 | 2.3
57 | COc1cc(C)[nH]c(=O)c1CNC(=O)c1c(C)n([C@H](C)C2CCOCC2)c2ccccc12 [CPI-360] | 0 | 0
58 | C[C@@H](Oc1cc(-n2cnc3ccc(CN4CCN(C)CC4)cc32)sc1C(N)=O)c1ccccc1C(F)(F)F | 6.3 | 11.5
